# According to patent US12565661B2, “Compositions and methods for weed control” (Syngenta Crop Protection AG, priority 2019, dated 2026):
# Where “and” joins values, the source holds several entries; their conditions need not be identical. Equal values may be shown once.
# Assays:
# Assay type in all cases: in vivo
# [1] = system: transgenic tobacco overexpressing Arabidopsis SDPS F240L gene and wild-type tobacco; test: Herbicide damage of transgenic tobacco sprayed with 75 g/ha Aclonifen or 25 g/ha herbicide Z; details: 7 days post treatment; for average herbicide damage score: 75 g/ha
# Description: A further set of transgenic tobacco overexpressing the Arabidopsis SDPS F240L gene (SEQ ID NO.3) were created as described above. These plants were sprayed with 75 g/ha Aclonifen or 25 g/ha herbicide Z. The plants were assessed for herbicide damage at 7 days post treatment and compared to wild-type tobacco plants.
# Numerous transgenic tobacco events expressing the Arabidopsis SDPS2 F240L gene (SEQ ID NO.3) show no damage from the herbicide treatment in contrast to the damage seen on the control plants. The average herbicide damage scores for the transgenic tobacco population versus the control wild-type plants are shown in table 6.
# [2] = system: transgenic tobacco expressing SDPS genes and wild-type Samsun tobacco; test: Herbicide tolerance of transgenic tobacco sprayed with 1000 g/ha Herbicide Compound 1, visual damage score; details: for Average Damage (%): 1000 g/ha spray, average across population
# Source text: Populations of transgenic tobacco comprising 20-30 transgenic events per plant transformation constructs were generated as described in example 4. These lines were clonally propagated and 1 clone per event was sprayed with 1000 g/ha of Herbicide Compound 1. Herbicidal damage was visually assessed across the population and a herbicide damage score given at 7 and 14 days. […] indicates no visible damage or stunting whereas a score of 100 indicates a complete death of the plant.
# The results in FIG. 3 show the damage scores for 4 populations of plants expressing either Arabidopsis SDPS2 gene (SEQ ID NO.2), the Arabidopsis SDPS2 F240L mutated gene (SEQ ID NO.3). the Chlorella fusca SDPS gene (SEQ ID NO. 10) or the Chlorella fusca SDPS F227L mutated gene (SEQ ID NO.11). A control population of wild-type Samsun tobacco was also assessed for herbicide damage. […] The Arabidopsis gene (SEQ ID NO.2) performs better than the Chlorella wild-type gene in terms of herbicide tolerance and this tolerance is again improved by the addition of the F240L mutation (SEQ ID NO.3).
# [3] = system: Nicotiana tabacum Samsun wild type and transgenic lines (plantlets); test: Tolerance of transgenic tobacco T1 lines in liquid culture, bleaching damage score; details: after 7 days
# Description: Nicotiana tabacum Samsun wild type and transgenic lines were sterilized by placing in 30 ml Universals containing approximately 15 ml freshly made 2% Virkon and rotated on a roller for 15 mins. The Virkon was pipetted off using an extended fine tip mini pastette and the seed washed 4 times with 1% PPM (Plant Preservative Mixture, P820, 250 ml. Apollo Scientific Ltd.)
# Seed was germinated on 90 mm Petri dishes containing 1/3 MS+0.8% agarose (SPI, Duchefa #DU 0463). pH5.7 (for WT) and 1/3 MS+0.8% agarose+100 ug/ml kanamycin (for the transgenic). Approximately 100 seed of each was spread on to each Petri dish. NB the transgenic seed is not homozygous therefore was plated on Kan to select. (MS=Murashige & Skoog MS Medium, #M0221, Melford Labs).
# Plates were placed in a clear plastic “incubating box” (lids under plate) and incubated in a controlled environment room with the following conditions: • Temperature: Day 25° C./Night 25° C. • Light settings: Photo period 16 hours, Light level ˜50 μmol/m^2/s Dose Response Test:
# 7 day old tobacco plantlets (3 plantlets per well) were transferred aseptically to 24 well plates (cell-culture cluster flat bottom with lid) (Corning Costar #3524) containing 2 ml % MS+30 mM sucrose (Fisher #10638403), pH5.7 per well. Herbicide 2 was two-fold serially diluted in DMSO starting at 10 ppm and added to the media. DMSO only was added to the zero compound control wells. NB.
# Plates were placed in clear plastic “Incubating boxes” (lid under plate) and incubated for 2 weeks in a controlled environment room with the following conditions: • Temperature: Day 24° C./Night 18° C. • Light settings: Photo period 16 hours, Light level 600 μmol/m^2/s. Assessment:
# Plantlets were assessed visually for bleaching symptomology after 7 days and a damage score given for each well.
smiles,measurement,setting,value
Nc1c([N+](=O)[O-])ccc(Oc2ccccc2)c1Cl [Aclonifen],average herbicide damage score,[1]; Wild type tobacco,40
same,average herbicide damage score,[1]; pBin AraSDPS2 F240L transgenic tobacco,16.17
same,herbicide damage score,"[1]; wild type tobacco, individual control plants, Aclonifen 75 g/ha spray",35 (4×) and 30 (2×) and 60 (2×)
CCOC(=O)C(CC)N(c1c(C)cccc1C)S(=O)(=O)CCl (stereo not shown) [Herbicide Compound Ex. 1],Average Damage (%),[2]; WT Control tobacco,23.125%
same,Average Damage (%),[2]; tobacco with construct pBin TMV AraSDPS2,13.25%
same,Average Damage (%),[2]; tobacco with construct pBin TMV AraSDPS2_F240L,5%
same,Average Damage (%),[2]; tobacco with construct pBin TMV CfSDPS,25%
same,Average Damage (%),[2]; tobacco with construct pBin TMV CfSDPS_F227L,10.05%
same,tolerance to herbicide (in words),[2]; tobacco expressing Chlorella fusca SDPS F227L (SEQ ID NO.11),does display increased tolerance
same,tolerance to herbicide (in words),[2]; tobacco overexpressing Chlorella fusca SDPS (SEQ ID NO. 10),does not increase tolerance
CCOC(=O)C(C)N(c1c(C)cccc1C)S(=O)(=O)CC (stereo not shown) [Herbicide Compound Ex. 2],bleaching damage score (two replicate plates a/b),"[3]; 0.75 ppm, WT (Samsun)",0/0
same,bleaching damage score (two replicate plates a/b),"[3]; 0.75 ppm, tobacco line ARA SDPS1",0/0
same,bleaching damage score (two replicate plates a/b),"[3]; 0.75 ppm, tobacco line ARA SDPS F240V 1",0/0
same,bleaching damage score (two replicate plates a/b),"[3]; 1.25 ppm, WT (Samsun)",0/0
same,bleaching damage score (two replicate plates a/b),"[3]; 1.25 ppm, tobacco line ARA SDPS1",0/0
same,bleaching damage score (two replicate plates a/b),"[3]; 1.25 ppm, tobacco line ARA SDPS F240V 1",0/0
same,bleaching damage score (two replicate plates a/b),"[3]; 2.5 ppm, WT (Samsun), listed as Herbicide 2",25/25 and 50/50
same,bleaching damage score (two replicate plates a/b),"[3]; 2.5 ppm, tobacco line ARA SDPS1, listed as Herbicide 2",50/50 and 50/25 and 25/25
same,bleaching damage score (two replicate plates a/b),"[3]; 2.5 ppm, tobacco line ARA SDPS F240V 1",25/25
same,bleaching damage score (two replicate plates a/b),"[3]; 5 ppm, WT (Samsun), listed as Herbicide 2",90/100 and 95/90
same,bleaching damage score (two replicate plates a/b),"[3]; 5 ppm, tobacco line ARA SDPS1, listed as Herbicide 2",100/100 and 90/80 and 80/95
same,bleaching damage score (two replicate plates a/b),"[3]; 5 ppm, tobacco line ARA SDPS F240V 1, listed as Herbicide 2",50/50 (2×) and 50/25
same,bleaching damage score (two replicate plates a/b),"[3]; 10 ppm, WT (Samsun), listed as Herbicide 2",100/100 and 95/100
same,bleaching damage score (two replicate plates a/b),"[3]; 10 ppm, tobacco line ARA SDPS1",100/100
same,bleaching damage score (two replicate plates a/b),"[3]; 10 ppm, tobacco line ARA SDPS F240V 1, listed as Herbicide 2",90/100 (2×) and 100/100
